The text below walks through data of patent US8303962B2, “Antibacterial and antifungal peptides” (C3 Jian, Inc., priority 2009, dated 2012).

One experiment concerns B. subtilis. Format: cell-based, Bacillus subtilis. As for the experimental part:
(§1) In certain embodiments the MIC assays are performed as described herein in the Examples. For each organism, the media and growth conditions utilized is detailed in Table 8.
(§2) In certain embodiments the MIC assays are performed as follows: For each organism, the media and growth conditions utilized is detailed in Table 8.

A further experiment has as its system MRSA. Format: cell-based, Methicillin-resistant Staphylococcus aureus. On the procedure: as §1, §2
For the next experiment, the system named is A. niger. Format: cell-based, Aspergillus niger. On the procedure: as §1, §2
The test system of the next experiment is T. rubrum. Format: cell-based, Trichophyton rubrum. The following applies: T. rubrum; Potato Dextrose Agar, 25° C., aerobic. On the procedure: as §1, §2
A further experiment deals with P. aeruginosa. Format: cell-based, Pseudomonas aeruginosa. The following applies: MH, 37° C., aerobic. As for the experimental part: as §1, §2
The next experiment concerns P. gingivalis. Format: cell-based, Porphyromonas gingivalis. The following applies: Columbia broth, 37° C., anaerobic. On the procedure:
as §1, §2

In another experiment the test system is M. furfur. In words: MIC assay, M. furfur. Format: cell-based, Malassezia furfur. The following applies: ATCC medium 1072, 37° C., aerobic. As for the experimental part:
as §1, §2

The test system of a further experiment is S. epidermidis. Format: cell-based. The following applies: BHI supplemented with 0.25% glucose, 37° C., aerobic. On the procedure:
as §1, §2

A further experiment relates to S. mutans. Format: cell-based, Streptococcus mutans. The following applies: TH supplemented with 1% sucrose, 37° C., anaerobic. As for the experimental part: as §1, §2
The test system of a further experiment is S. pneumoniae. Format: cell-based, Streptococcus pneumoniae. The following applies: TSB supplemented with 5% yeast extract, 37° C., 10% CO2. On the procedure: as §1, §2
A further experiment deals with A. baumannii. Format: cell-based, Acinetobacter baumannii. The following applies: LB, 30° C., anaerobic. On the procedure: as §1, §2

Converted amounts (≈) assume the structure as drawn. Like-named read-outs stand apart in the source and are kept apart here. Peptide text beside a SMILES is read from it.

By MIC is commonly meant the lowest concentration that inhibits growth of the organism. Read a high MIC as a need for much substance. As to `CC[C@H](C)[C@H](NC(=O)[C@H](CCCNC(=N)N)NC(=O)[C@H](CCCNC(=N)N)NC(=O)[C@H](CCCNC(=N)N)NC(=O)[C@@H](NC(=O)[C@H](CCSC)NC(=O)[C@H](CC(=O)O)NC(=O)[C@H](C)NC(=O)[C@H](CCSC)NC(=O)[C@H](C)NC(=O)[C@@H](NC(=O)[C@H](CC(C)C)NC(=O)[C@H](CCCCN)NC(=O)[C@H](CO)NC(=O)[C@H](CCC(=O)O)NC(=O)[C@@H](N)CCCNC(=N)N)[C@@H](C)CC)[C@@H](C)CC)C(=O)O` [PF-545] (H-RESKLIAMADMIRRRI-OH; N-terminus and C-terminus assumed), the MIC against B. subtilis was determined as 25 µM (≈ 49 µg/mL); in the experiment on MRSA, 50 µM (≈ 98 µg/mL); with A. niger it was 50 µM (≈ 98 µg/mL).

Turning to `CC[C@H](C)[C@H](NC(=O)[C@H](CCCNC(=N)N)NC(=O)[C@@H](NC(=O)[C@H](CCCCN)NC(=O)[C@H](CCCCN)NC(=O)[C@H](CC(C)C)NC(=O)[C@H](CC(C)C)NC(=O)[C@H](CCCCN)NC(=O)[C@H](CCCNC(=N)N)NC(=O)[C@H](Cc1c[nH]cn1)NC(=O)[C@H](CCCCN)NC(=O)[C@H](CCCCN)NC(=O)[C@H](CCCCN)NC(=O)[C@H](C)NC(=O)[C@H](CCSC)NC(=O)[C@H](CCCNC(=N)N)NC(=O)[C@H](CCCCN)NC(=O)[C@H](CCCNC(=N)N)NC(=O)[C@H](CCCNC(=N)N)NC(=O)[C@H](CCCCN)NC(=O)[C@H](CCCCN)NC(=O)[C@@H](NC(=O)[C@@H](NC(=O)[C@H](CO)NC(=O)CN)C(C)C)[C@@H](C)CC)[C@@H](C)O)C(=O)N[C@@H](CCC(N)=O)C(=O)N[C@@H](CCCNC(=N)N)C(=O)N[C@@H](CCCNC(=N)N)C(=O)N[C@@H](CCCNC(=N)N)C(=O)N[C@@H](C)C(=O)NCC(=O)N[C@@H](CCCCN)C(=O)O` [PF-527] (H-GSVIKKRRKRMAKKKHRKLLKKTRIQRRRAGK-OH; N-terminus and C-terminus assumed), the MIC is 25 µM (≈ 98.5 µg/mL) in the experiment with T. rubrum and 50 µM (≈ 197 µg/mL) against A. niger (A. niger, Potato Dextrose Agar, 25° C., aerobic).

With `CC[C@H](C)[C@H](NC(=O)[C@@H](NC(=O)[C@H](CO)NC(=O)CN)C(C)C)C(=O)N[C@@H](CCCCN)C(=O)N[C@@H](CCCCN)C(=O)N[C@@H](CCCNC(=N)N)C(=O)N[C@@H](CCCNC(=N)N)C(=O)N[C@@H](CCCCN)C(=O)N[C@@H](CCCNC(=N)N)C(=O)N[C@@H](CCSC)C(=O)N[C@@H](CO)C(=O)N[C@@H](CCCCN)C(=O)N[C@@H](CCCCN)C(=O)N[C@@H](CCCCN)C(=O)N[C@@H](Cc1c[nH]cn1)C(=O)N[C@@H](CCCNC(=N)N)C(=O)N[C@@H](CCCCN)C(=O)N[C@@H](CCSC)C(=O)N[C@@H](CC(C)C)C(=O)N[C@@H](CCCNC(=N)N)C(=O)N[C@@H](CCCNC(=N)N)C(=O)N[C@H](C(=O)N[C@@H](CCCNC(=N)N)C(=O)N[C@H](C(=O)N[C@@H](CCC(N)=O)C(=O)N[C@@H](CCCNC(=N)N)C(=O)N[C@@H](CCCNC(=N)N)C(=O)N[C@@H](CCCCN)C(=O)N[C@@H](CC(C)C)C(=O)NCC(=O)N[C@@H](CCCCN)C(=O)O)C(C)C)[C@@H](C)O` [PF-S028], the MIC with P. aeruginosa amounted to 50 µM (≈ 202 µg/mL); with P. gingivalis, 25 µM (≈ 101 µg/mL); in the experiment with T. rubrum, 50 µM (≈ 202 µg/mL); against M. furfur it was 2.5 µM (≈ 10.1 µg/mL); with S. epidermidis, 25 µM (≈ 101 µg/mL); in the experiment on S. mutans, 50 µM (≈ 202 µg/mL).

With `CC(C)C[C@H](NC(=O)CNC(=O)[C@@H](N)CC(C)C)C(=O)N[C@H](C(=O)N[C@@H](C)C(=O)NCC(=O)N[C@H](C(=O)N[C@@H](C)C(=O)N[C@@H](Cc1ccc(O)cc1)C(=O)N[C@@H](C)C(=O)N[C@@H](C)C(=O)N[C@@H](CCC(N)=O)C(=O)N1CCC[C@H]1C(=O)N[C@H](C(=O)N[C@@H](CC(N)=O)C(=O)N[C@@H](CCC(N)=O)C(=O)N1CCC[C@H]1C(=O)N[C@H](C(=O)N[C@@H](CC(N)=O)C(=O)N[C@@H](CCC(N)=O)C(=O)N1CCC[C@H]1C(=O)N[C@H](C(=O)N[C@@H](CC(N)=O)C(=O)N[C@@H](CCC(N)=O)C(=O)N1CCC[C@H]1C(=O)N[C@H](C(=O)N[C@@H](CC(N)=O)C(=O)N[C@@H](CCC(N)=O)C(=O)N1CCC[C@H]1C(=O)N[C@H](C(=O)N[C@@H](CC(N)=O)C(=O)N[C@@H](CCC(N)=O)C(=O)N1CCC[C@H]1C(=O)N[C@H](C(=O)N[C@@H](CC(N)=O)C(=O)N[C@@H](CCC(N)=O)C(=O)N1CCC[C@H]1C(=O)N[C@@H](CCCNC(=N)N)C(=O)N[C@@H](Cc1c[nH]c2ccccc12)C(=O)O)[C@@H](C)O)[C@@H](C)O)[C@@H](C)O)[C@@H](C)O)[C@@H](C)O)[C@@H](C)O)C(C)C)[C@@H](C)O` [PF-520] (H-LGLTAGVAYAAQPTNQPTNQPTNQPTNQPTNQPTNQPRW-OH; N-terminus and C-terminus assumed), the MIC with S. pneumoniae amounted to 50 µM (≈ 211 µg/mL).

Take `CC[C@H](C)[C@H](NC(=O)CNC(=O)[C@@H](N)CCSC)C(=O)N[C@H](C(=O)N[C@@H](C)C(=O)NCC(=O)N[C@H](C(=O)N[C@H](C(=O)N[C@@H](CCCCN)C(=O)N[C@@H](Cc1ccccc1)C(=O)N[C@H](C(=O)N[C@@H](CCCCN)C(=O)NCC(=O)N[C@@H](CC(C)C)C(=O)N[C@H](C(=O)N[C@@H](CCC(=O)O)C(=O)N[C@@H](CCCCN)C(=O)N[C@@H](Cc1ccccc1)C(=O)N[C@H](C(=O)NCC(=O)N[C@@H](CCCCN)C(=O)O)[C@@H](C)O)[C@@H](C)CC)[C@@H](C)CC)[C@@H](C)CC)[C@@H](C)CC)[C@@H](C)CC` [PF-006]: the MIC against B. subtilis (B. subtilis, BHI, 30° C., aerobic) turned out to be 25 µM (≈ 56.9 µg/mL); with MRSA (MRSA, BHI supplemented with 2% glucose, 37° C., aerobic), 50 µM (≈ 114 µg/mL); against A. baumannii, 50 µM (≈ 114 µg/mL).
